Here are results for one compound from paper PMC5650530 (ACS chemical biology, 2017).

The target in test [1] is T1, PTGR2 (Homo sapiens, UniProt Q8N8N7). The test can be described thus: LiPIP. As to conditions: KDT501 25 and 50 μM; A-DA or AEA-DA probe 10 μM; HEK293T cells. The test is classed as binding.
Target sequence in this assay (Q8N8N7 whole entry): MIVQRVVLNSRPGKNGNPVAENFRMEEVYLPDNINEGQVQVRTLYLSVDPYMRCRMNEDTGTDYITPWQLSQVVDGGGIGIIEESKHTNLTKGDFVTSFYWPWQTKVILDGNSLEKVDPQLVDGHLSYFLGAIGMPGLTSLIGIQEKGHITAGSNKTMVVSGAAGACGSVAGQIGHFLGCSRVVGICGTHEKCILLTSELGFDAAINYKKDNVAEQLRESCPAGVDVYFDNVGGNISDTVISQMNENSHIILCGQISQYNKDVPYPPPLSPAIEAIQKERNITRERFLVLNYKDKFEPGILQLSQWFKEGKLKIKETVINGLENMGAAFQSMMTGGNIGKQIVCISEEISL
The target in another test is T2, BAIAP2 (Homo sapiens, UniProt Q9UQB8).
T2 sequence (Q9UQB8 1-552): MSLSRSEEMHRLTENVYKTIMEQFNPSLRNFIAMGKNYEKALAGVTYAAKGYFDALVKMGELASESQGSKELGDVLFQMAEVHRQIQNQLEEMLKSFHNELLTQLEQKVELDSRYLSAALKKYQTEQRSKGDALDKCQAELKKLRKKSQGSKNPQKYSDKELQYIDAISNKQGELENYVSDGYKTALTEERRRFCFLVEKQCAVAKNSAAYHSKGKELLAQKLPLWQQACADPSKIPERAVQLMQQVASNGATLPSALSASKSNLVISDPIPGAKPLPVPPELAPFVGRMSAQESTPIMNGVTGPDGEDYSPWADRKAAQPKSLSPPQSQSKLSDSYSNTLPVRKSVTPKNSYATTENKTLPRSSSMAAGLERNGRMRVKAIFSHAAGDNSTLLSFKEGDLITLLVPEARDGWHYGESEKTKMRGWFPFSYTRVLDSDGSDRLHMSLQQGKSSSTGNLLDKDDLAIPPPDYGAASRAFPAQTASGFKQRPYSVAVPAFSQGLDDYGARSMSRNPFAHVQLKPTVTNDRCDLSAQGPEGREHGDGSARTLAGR
Put plainly: LiPIP. The format is binding. As to conditions: KDT501 25 and 50 μM; A-DA or AEA-DA probe 10 μM; HEK293T cells.

Test [2] addresses T1, PTGR2. The test is classed as binding. As to conditions: read-out: IC50, blockade of A-DA probe labeling of recombinant PTGR2; transfected cell lysates; A-DA 5 μM; 95% CI 3.0–5.3 μM.
Target sequence in this assay (Q8N8N7 whole entry, species assumed): as the sequence (Q8N8N7 whole entry) above
In test [3] the target is T1, PTGR2. Put plainly: 15-keto PGE2 substrate assay with recombinant PTGR2 protein. The test is classed as biochemical. The note with it: read-out: IC50, inhibition of dhk-PGE2 production, 15-keto PGE2 and NADPH, 95% CI 4.4–16 μM.
Target sequence in this assay (Q8N8N7 whole entry): as the sequence (Q8N8N7 whole entry) above
Test [4] deals with T1, PTGR2. The test can be described thus: 15-keto PGE2 reductase activity of PTGR2-transfected HEK293T cell lysates. As to conditions: read-out: IC50, inhibition of 15-keto PGE2 reductase activity; lysates from HEK293T cells transfected with PTGR2; 95% CI 1.4–2.4 μM. The test is classed as biochemical.
Target sequence in this assay (Q8N8N7 whole entry, species assumed): as the sequence (Q8N8N7 whole entry) above
The conditions of test [5]: reference not given; cited from earlier work.
The test system of a further test is PPAR-γ. As to conditions: cited from earlier work.

Where two headings read alike, the source gives them in different places.

Regarding `CC(C)CCC(=O)[C@]1(O)C(=O)[C-](C(=O)CC(C)C)C(=O)[C@H]1CCC(C)C.[K+]` (stereo partly shown) [KDT501], the “blockade of lipid probe enrichment of PTGR2” value at PTGR2 [1] is on record as “substantive blockade of enrichment”. The “blockade of lipid probe enrichment of BAIAP2” value on BAIAP2 is “substantive blockade of enrichment”. In addition, the IC50 amounted to 4 µM at PTGR2 [2], 8.4 µM at PTGR2 [3] and 1.8 µM on PTGR2 [4]. In addition, in test [5], the “moderately potent activity in cells (concentration)” value was 10 to 50 µM. The “agonism of PPAR-γ” value in the test on PPAR-γ is recorded as “weak agonist”.

Usually IC50 stands for the concentration that inhibits the measured activity by half.
